Source: US20110152340A1, “Methods for Identifying Subjects With an Increased Likelihood of Responding to DPP-IV Inhibitors” (BRISTOL-MYERS SQUIBB COMPANY, priority 2008, published 2011)

Assays:
Type in all cases: in vivo, human
[1] = Saxagliptin clinical trials: fasting glucose response by GRINL1A genotype
Procedure: (§1) SNPs from the genome-wide SNP panel were tested for association with response to DPP-IV inhibitors by two analytical methodologies. In one method, SNPs were identified with significant differences in mean HBA1C response among individuals with different genotypes on treatment, taking into account covariates such as demographic differences with an analysis of covariance (ANCOVA) statistical model. SNPs with consistent in their effect on HBA1C in both trials were considered for further evaluation. In a second method, SNPs were examined for association with response cluster. SNPs consistently associated with response cluster in both trials were further evaluated for influence on fasting glycosylated hemoglobin or glucose levels using analysis of covariance.
(§2) Sample: Subjects in BMS clinical trials, (Trial A and Trial B) receiving DPP-IV inhibitor (saxigliptin) therapy. All subjects have diabetes and the study group was mixed with respect to age, race and duration of diabetes. Measures: Single nucleotide polymorphisms (SNPs) in a genome-wide panel were genotyped on all subjects essentially as described in Example 1. […] The SNPs that were genotyped likely represent a sample of the polymorphic variation in each gene and are not exhaustive with regard to coverage of the total genetic variation that may be present in each gene. […] Statistical Analyses: Initial analysis to determine SNP association with cluster membership was performed using the genotypic test (2-degrees of freedom) implemented in the program PLINK (Purcell et al., 2007 Amer. Journ. Hum Genet. 81: 559-75. PLINK: a tool set for whole-genome association and population-based linkage analyses). […] Follow-up analysis was performed employing a statistical package, SPSS v.14 (SPSS Inc. Chicago, Ill.). […] SNPs that were associated with differential genotype response were identified by a significant difference in HBA1C response (P<=0.05) in two independent trials. Analysis was performed employing a statistical package, SAS v. […] Differences in means between clusters for HbA1c were evaluated using Kruskal-Wallis test.

[2] = Saxagliptin clinical trials (Trial A and Trial B): HbA1c response by SNP genotype
Procedure: The association between the SNPs and the response to saxagliptin was evaluated in two ways. SNPs from the genome-wide SNP panel were tested for association with response to DPP-IV inhibitors by two analytical methodologies. In one method, SNPs were identified with significant differences in mean HBA1C response among individuals with different genotypes on treatment, taking into account covariates such as demographic differences with an analysis of covariance (ANCOVA) statistical model. SNPs with consistent in their effect on HBA1C in both trials were considered for further evaluation. In a second method, SNPs were examined for association with response cluster. SNPs consistently associated with response cluster in both trials were further evaluated for influence on fasting glycosylated hemoglobin or glucose levels using analysis of covariance. Sample: Subjects in BMS clinical trials, (Trial A and Trial B) receiving DPP-IV inhibitor ([…]) therapy. All subjects have diabetes and the study group was mixed with respect to age, race and duration of diabetes. Measures: Single nucleotide polymorphisms (SNPs) in a genome-wide panel were genotyped on all subjects essentially as described in Example 1. […] The SNPs that were genotyped likely represent a sample of the polymorphic variation in each gene and are not exhaustive with regard to coverage of the total genetic variation that may be present in each gene. The SNP for which a statistical association to DPP-IV inhibitor-dependent metabolic abnormalities was confirmed is provided in Table III. Statistical Analyses: Initial analysis to determine SNP association with cluster membership was performed using the genotypic test (2-degrees of freedom) implemented in the program PLINK (Purcell et al., 2007 Amer. Journ. Hum […]: a tool set for whole-genome association and population-based linkage analyses). […] Follow-up analysis was performed employing a statistical package, SPSS v.14 (SPSS Inc. Chicago, Ill.). Some SNP associations were also discovered or confirmed using an ANCOVA modeling approach as described below. SNPs that were associated with differential genotype response were identified by a significant difference in HBA1C response (P<=0.05) in two independent trials. Analysis was performed employing a statistical package, SAS v. 8.2 (SAS Institute Inc., Cary, N.C.). […] Baseline glycosylated hemoglobin (HbA1c) and change in HbA1c after twelve weeks (study A) or twenty-four weeks (study B) of DPP-IV inhibitor therapy for each individual were used in this analysis. […] This process was iteratively repeated until all individuals were clustered into groups, either non-responders (poor response to saxagliptin therapy) or super responders (response to saxagliptin therapy). The two-step clustering routine implemented in SPSS version 12 (Chicago, Ill., US) was used. Differences in means between clusters for HbA1c were evaluated using Kruskal-Wallis test. […] The ANCOVA model provides an estimate of mean final HbA1C after treatment for different genotypes, taking into account clinical and demographic information. […] The SNP genotype was included in the model and the difference in HbA1c was estimated between wildtype homozygous and heterozygous or rare homozygous individuals. SNPs that were associated with differential genotype response were identified by a significant (P<=0.05) difference (in the same direction) in HBA1C response between genotypes in two independent trials. Analysis was performed using contrast estimates with the GLM procedure in SAS v. 8.2 (SAS Institute Inc., Cary, N.C.).

[3] = Saxagliptin clinical trials: AUC glucose response by GRINL1A genotype
Procedure: as §1, §2

Compound: N#C[C@@H]1C[C@@H]2C[C@@H]2N1C(=O)[C@@H](N)C12CC3CC(CC(O)(C3)C1)C2 [saxagliptin, (1S,3S,55)-2-[(2S)-2-amino-2-(3-hydroxytricyclo[3.3.1.1^3,7]dec-1-yl)-1-oxoethyl]-2-azabicyclo[3.1.0]hexane-3-carbonitrile]
- mean change in fasting glucose levels ([1]; FIG. 10, GRINL1A position 87,992, reference carriers vs SNP carriers): higher reduction in mean fasting glucose levels
- mean change in fasting glucose levels following saxagliptin treatment ([1]; subjects homozygous for the reference allele (T/T) at position 87,992 of SEQ ID NO: 1 (GRINL1A), compared to carriers of the variant allele): significant reduction in the mean fasting glucose levels
- mean change in fasting glucose levels following saxagliptin treatment ([1]; variant SNP carriers (C/T or C/C) at position 87,992 of SEQ ID NO: 1 (GRINL1A), compared with matched placebo controls): little change in the fasting glucose levels
- mean change in HbA1c levels ([2]; FIG. 9, GRINL1A position 87,992, reference carriers vs SNP variant carriers): higher reduction in mean glycosylated hemoglobin
- mean change in HbA1c levels ([2]; FIG. 12, HSD11B1 position 34,403, reference carriers vs SNP carriers): higher reduction in mean glycosylated hemoglobin
- mean change in HbA1c levels ([2]; FIG. 13, CHST10 position 24,707, reference carriers vs SNP carriers): higher reduction in mean glycosylated hemoglobin
- mean change in HbA1c levels ([2]; FIG. 14, CHST10 position 34,078, reference carriers vs SNP carriers): higher reduction in mean glycosylated hemoglobin
- mean change in HbA1c levels ([2]; FIG. 15, CHST10 position 35,799, reference carriers vs SNP carriers): higher reduction in mean glycosylated hemoglobin
- mean change in HbA1c levels ([2]; FIG. 16, CHST10 position 38,709, reference carriers vs SNP carriers): higher reduction in mean glycosylated hemoglobin
- mean change in HbA1c levels ([2]; FIG. 17, CHST10 position 38,947, reference carriers vs SNP carriers): higher reduction in mean glycosylated hemoglobin
- mean change in HbA1c levels ([2]; FIG. 18, CHST10 position 41,180, reference carriers vs SNP carriers): higher reduction in mean glycosylated hemoglobin
- mean change in HbA1c levels following saxagliptin treatment ([2]; Trial A and Trial B, variant SNP carriers at positions 24,707, 34,078, 35,799, 38,709, 38,947 or 41,180 of SEQ ID NO: 5 (CHST10), compared with reference allele homozygotes): little change in HbA1c levels
- mean HbA1C in response to therapy ([2]; homozygous reference allele (T/T) vs heterozygous (T/C) individuals at position 26,472 of SEQ ID NO: 63 or 64 (TEKT5), both trials): lower mean HbA1C in response to therapy than heterozygous individuals
- mean change in HbA1c levels following saxagliptin treatment ([2]; reference allele homozygotes at position 34,403 of SEQ ID NO: 3 or 4 (HSD11B1), compared to carriers of the variant allele): greaterreduction in mean HbA1c levels
- mean change in HbA1c levels following saxagliptin treatment ([2]; subjects homozygous for the reference allele (T/T) at position 87,992 of SEQ ID NO: 1 or 2 (GRINL1A)): significant reduction in mean HbA1c levels
- mean change in HbA1c levels following saxagliptin treatment ([2]; variant SNP carriers (C/T or C/C) at position 87,992 of SEQ ID NO: 1 or 2 (GRINL1A)): little change in HbA1c levels
- mean change in HbA1c levels following saxagliptin treatment ([2]; variant SNP carriers at position 34,403 of SEQ ID NO: 3 or 4 (HSD11B1)): little change in HbA1c levels
- mean change in AUC Glucose levels ([3]; FIG. 11, GRINL1A position 87,992, reference carriers vs SNP carriers): higher reduction in AUC Glucose levels
- mean change in AUC glucose levels following saxagliptin treatment ([3]; GRINL1A variant SNP carriers): little change in the AUC glucose levels
- mean change in AUC glucose levels following saxagliptin treatment ([3]; those homozygous for the GRINL1A reference allele): significant reduction in the AUC glucose levels
